# Measured values as given in patent US6916818B2, “Azaindoles having serotonin receptor affinity” (NPS Allelix Corp., priority 1999, dated 2005).
# Molecular target: T1, human 5HT6 receptor (Homo sapiens, UniProt P50406)
# T1 construct: expressed in transfected cells
# Experiment: Functional assay: serotonin-stimulated adenyl cyclase (cAMP EIA) in HEK 293 cells expressing 5HT6
# Format: cell-based
# Conditions: test compound 100 nM and 10 μM along with serotonin
# Method: The 5HT6 receptor responds to serotonin and other agonists by increasing adenyl cyclase mediated production of cyclic AMP. Particular test compounds were assayed for their effect on adenyl cyclase activity using the procedure described below.
# Compounds acting as antagonists at the 5HT6 receptor will antagonize the agonist effect of serotonin and thus, will block the serotonin-induced increase in adenyl cyclase activity.
# HEK 293 cells stably expressing the human 5HT6 receptor were plated in 6 well plates in DMEM (Dulbecco's Modified Eagle Medium)/F12 (Nutrient Mixture F12—Ham) media with 10% FCS (fetal calf serum) and G418 (Geneticen Disulfate, 500 ug/ml), and incubated at 37° C. in a CO2 incubator. The cells were allowed to grow to about 70% confluence before use in the assay.
# The culture medium of each well was removed, and the wells were washed once with serum free media. Then 2 ml of SFM+IBMX medium (SFM with 0.5 mM IBMX, 3-isobutyl-1-methylxanthine, 0.1% ascorbic acid and 10 mM pargyline) was added to each well and the wells were incubated at 37° C. for 10 min. Following incubation, the SFM+IBMX medium was removed from each well and fresh SFM+IBMX media was added to the wells separately with one of a) serotonin (1 μM final concentration); b) test compound (100 nM and 10 μM, to test for agonist activity); and c) test compound (100 nM and 10 μM) along with serotonin ([…], to test for antagonist activity). Basal adenyl cyclase activity was determined from wells with only SFM+IBMX media added.
# The cells were then incubated at 37° C. for 30 minutes in a CO2 incubator. […] The pellets were discarded and the supernatants were stored at 4° C. until assayed for cAMP concentration. cAMP content for each extract was determined in duplicate by EIA (enzyme-immunoassay) using the Amersham Biotrak cAMP EIA kit (Amersham RPN 225). Final results were expressed as % basal response for agonists and % reversal of serotonin response for antagonists.
# The total stimulation of adenyl cyclase by serotonin (So) was determined as the difference in concentration of cAMP in the serotonin-treated cells (Cd) and the basal-treated cells (Cf). […]
# The net stimulation (S) of basal adenyl cyclase by an agonist test compound was determined as the difference in cAMP concentration in the drug-treated cell (C) and the basal-treated cells (Cf). […]
# The net stimulation (Ss) of basal adenyl cyclase by serotonin in the presence of an antagonist test compound was determined as the difference in cAMP concentration in the serontonin-drug-treated cells (Cs) and the basal-treated cells (Cf). […]
# The ability of the antagonist test compound to reverse the serotonin stimuation of adenyl cyclase activity (% reversal, % R) was determined by the formula: % R=(1−Ss/So)×100
# T1 sequence (P50406 whole entry): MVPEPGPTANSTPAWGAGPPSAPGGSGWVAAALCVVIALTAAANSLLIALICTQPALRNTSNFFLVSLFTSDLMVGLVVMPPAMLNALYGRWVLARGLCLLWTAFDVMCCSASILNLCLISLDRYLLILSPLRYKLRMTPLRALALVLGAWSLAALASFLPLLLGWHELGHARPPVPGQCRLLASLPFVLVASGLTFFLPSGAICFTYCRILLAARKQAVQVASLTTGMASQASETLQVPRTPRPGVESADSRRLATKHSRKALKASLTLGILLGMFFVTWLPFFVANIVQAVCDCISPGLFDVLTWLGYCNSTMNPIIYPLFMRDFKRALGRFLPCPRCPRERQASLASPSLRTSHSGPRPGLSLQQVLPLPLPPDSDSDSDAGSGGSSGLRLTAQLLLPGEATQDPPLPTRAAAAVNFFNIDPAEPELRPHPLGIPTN
row,Compound,reversal of serotonin stimulation of adenyl cyclase (antagonist activity)
1,"O=S(=O)(c1ccccc1)n1cc(C2=CCN3CCCC3C2)c2cnccc21 (stereo not shown) [3-(1,2,3,5,8,8a-Hexahydro-7-indolizinyl)-1-benzenesulfonyl-5-azaindole]",able to reverse the serotonin stimulation of adenyl cyclase
2,"O=S(=O)(c1cccc2ccccc12)n1cc(C2=CCN3CCCC3C2)c2cnccc21 (stereo not shown) [3-(1,2,3,5,8,8a-Hexahydro-7-indolizinyl)-1-(1-naphthalenesulfonyl)-5-azaindole]",able to reverse the serotonin stimulation of adenyl cyclase
3,"O=S(=O)(c1cccc2ccccc12)n1cc(C2=CCN3CCCC3C2)c2cccnc21 (stereo not shown) [3-(1,2,3,5,8,8a-Hexahydro-7-indolizinyl)-1-(1-naphthalenesulfonyl)-7-azaindole]",able to reverse the serotonin stimulation of adenyl cyclase
4,"O=S(=O)(c1ccccc1)n1cc(C2=CCN3CCCC3C2)c2cccnc21 (stereo not shown) [3-(1,2,3,5,8,8a-Hexahydro-7-indolizinyl)-1-benzenesulfonyl-7-azaindole]",able to reverse the serotonin stimulation of adenyl cyclase
